Test results reported in US12187758B2 (ROME Therapeutics, Inc., priority 2022, dated 2025).

Tested on: interferon-stimulated gene (ISG) response
Experiment: In vivo decitabine challenge model in C57BL/6 mice
Settings: kidneys, decitabine i.p. 5 mg/kg, compound 1, 10, 100 mg/kg p.o. once a day
Method: Exemplary compounds were tested for ability to alter the interferon-stimulated gene (ISG) response in C57BL/6 mice treated with decitabine. Assay procedures and results are described below. Twenty 9-11 week old C57BL/6 mice were acclimated to the lab for at least 5 days. Compound 23 was prepared in a 0.5% methylcellulose solution for p.o. administration. Decitabine (Sigma-Aldrich) was dissolved in sterile PBS (pH 7.4) and dosed within 30 minutes of preparation of the solution. Doses of both the compound and decitabine were administered once a day, every day from Day 0 to Day 4. […] The fold changes in interferon-stimulated gene (ISG) expression was calculated by first normalizing to GAPDH gene using the Delta CT method. The CT (gene of interest) —CT (reference gene) was calculated to generate a delta CT for all samples. […] The fold changes in interferon-stimulated gene (ISG, specifically IRF7 and MX1) expression was calculated by first normalizing to GAPDH gene using the Delta CT method. The CT (gene of interest)−CT (reference gene) was calculated to generate a delta CT for all samples. The fold change was then calculated by taking the […](Delta CT(control)−Delta CT (experimental). The control in this example was the PBS control animal group. Individual primers were used to amplify target genes.

Nc1ccn([C@H]2C[C@H](O)[C@](CO)(CCl)O2)c(=O)n1 [Compound 2, 4-amino-1-((2R,4S,5R)-5-(chloromethyl)-4-hydroxy-5-(hydroxymethyl)tetrahydrofuran-2-yl)pyrimidin-2(1H)-one]
change in ISG response (IRF7 and MX1), FIGS. 2B and 2C: shows a change in the ISG response
